# Results taken from US5432018A, “Peptide library and screening systems” (Affymax Technologies N.V., priority 1991, dated 1995).
# Test system: 3E7 Fab
# Assay: Dissociation of [125I]Fab from fusion phage clones
# Type: binding, mouse
# Set-up: key to Dissociation t1/2 (minutes): **: indicates that initial binding was not detected
# Settings: [125I]Fab dissociating from the phage clone bearing the peptide; 4° C; excess free YGGFL added
# Protocol: An assay employing the anti-phage antisera was developed to determine the rate of dissociation of [^125 I]Fab from individual phage isolates. Individual fusion phase isolates were amplified in a 5 ml liquid culture of E. coli K91 cells and phage particles were isolated and quantitated as described above. In 1 ml microtiter minitubes, 25 μl of TBS containing approximately 2×10^9 infectious phage particles were incubated with […] of TBS/0.1% BSA containing 40,000 cpm of [^125 I]Fab for 10 minutes. Anti-phage antisera (25 μl of 1:1000 dilution in PBS/0.1%BSA) and staph A particles coated with goat anti-mouse IgG (25 μl of Tachisorb diluted eight-fold in TBS/0.1% BSA) were then added. Dissociation was initiated after 2 hours further incubation at 4° C. […] Filter bound radioactivity was determined by gamma counting. […] The time corresponding to a 50% reduction of initially bound [^125 I]Fab was determined by linear regression of a semi-logarithmic plot of amount bound vs. time.
Substance,Dissociation t1/2 [min],Dissociation t1/2 (minutes)
YGGFLT: hexapeptide isolated with 50 pM Fab,17.9,–
YGFWSN: hexapeptide isolated with 50 pM Fab,7.4,–
YGSFMA: hexapeptide isolated with 50 pM Fab,–,**
YGAFGG: hexapeptide isolated with 50 pM Fab,5.0,–
YGYWSL: hexapeptide isolated with 50 pM Fab,15.6,–
YGVFSR: hexapeptide isolated with 50 pM Fab,2.8,–
YGRFFH: hexapeptide isolated with 50 pM Fab,–,**
YGGLSM: hexapeptide isolated with 50 pM Fab,0.96,–
YGGFSP: hexapeptide isolated with 50 pM Fab,–,**
YGAFFQ: hexapeptide isolated with 50 pM Fab,13.4,–
YGGLRH: hexapeptide isolated with 50 pM Fab,–,**
YGSFSL: hexapeptide isolated with 50 pM Fab,0.43,–
YGGLVR: hexapeptide isolated with 50 pM Fab,0.50,–
